From PMC6566410, “Novel Diamide-Based Benzenesulfonamides as Selective Carbonic Anhydrase IX Inhibitors Endowed with Antitumor Activity: Synthesis, Biological Evaluation and In Silico Insights” (International Journal of Molecular Sciences, 2019)

What was measured:
Experiment in all cases: NCI one-dose SRB assay
SF-268 = assay type: cell-based; conditions: Homo sapiens, SF-268 (CNS Cancer), 1.00E-5 Molar, read-out: Growth Percent
Procedure, shortened: (§1)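 Single-dose screen, 10^−5 M, NCI-60 panel per DTP protocol; growth/viability by SRB colorimetry.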

SNB-75 = assay type: cell-based; conditions: Homo sapiens, SNB-75 (CNS Cancer), 1.00E-5 Molar, read-out: Growth Percent
Procedure, shortened: as §1

IGROV1 = assay type: cell-based; conditions: Homo sapiens, IGROV-1, IGROV1 (Ovarian Cancer), 1.00E-5 Molar, read-out: Growth Percent
Procedure, shortened: as §1

NCI-H322M = assay type: cell-based; conditions: Homo sapiens, NCI-H322M (Non-Small Cell Lung Cancer), 1.00E-5 Molar, read-out: Growth Percent
Procedure, shortened: as §1

COLO 205 = assay type: cell-based; conditions: Homo sapiens, COLO 205 (Colon Cancer), 1.00E-5 Molar, read-out: Growth Percent
Procedure, shortened: as §1

NCI-H522 = assay type: cell-based; conditions: Homo sapiens, NCI-H522 (Non-Small Cell Lung Cancer), 1.00E-5 Molar, read-out: Growth Percent
Procedure, shortened: as §1

OVCAR-8 = assay type: cell-based; conditions: Homo sapiens, OVCAR-8 (Ovarian Cancer), 1.00E-5 Molar, read-out: Growth Percent
Procedure, shortened: as §1

EKVX = assay type: cell-based; conditions: Homo sapiens, EKVX (Non-Small Cell Lung Cancer), 1.00E-5 Molar, read-out: Growth Percent
Procedure, shortened: as §1

OVCAR-4 = assay type: cell-based; conditions: Homo sapiens, OVCAR-4 (Ovarian Cancer), 1.00E-5 Molar, read-out: Growth Percent
Procedure, shortened: as §1

HOP-92 = assay type: cell-based; conditions: Homo sapiens, HOP-92 (Non-Small Cell Lung Cancer), 1.00E-5 Molar, read-out: Growth Percent
Procedure, shortened: as §1

DU-145 = assay type: cell-based; conditions: Homo sapiens, DU-145 (Prostate Cancer), 1.00E-5 Molar, read-out: Growth Percent
Procedure, shortened: as §1

SF-539 = assay type: cell-based; conditions: Homo sapiens, SF-539 (CNS Cancer), 1.00E-5 Molar, read-out: Growth Percent
Procedure, shortened: as §1

HCT-15 = assay type: cell-based; conditions: Homo sapiens, HCT-15 (Colon Cancer), 1.00E-5 Molar, read-out: Growth Percent
Procedure, shortened: as §1

SN12C = assay type: cell-based; conditions: Homo sapiens, SN12C (Renal Cancer), 1.00E-5 Molar, read-out: Growth Percent
Procedure, shortened: as §1

SK-MEL-5 = assay type: cell-based; conditions: Homo sapiens, SK-MEL-5 (Melanoma), 1.00E-5 Molar, read-out: Growth Percent
Procedure, shortened: as §1

SK-OV-3 = assay type: cell-based; conditions: Homo sapiens, SK-OV-3 (Ovarian Cancer), 1.00E-5 Molar, read-out: Growth Percent
Procedure, shortened: as §1

A498 = assay type: cell-based; conditions: Homo sapiens, A498 (Renal Cancer), 1.00E-5 Molar, read-out: Growth Percent
Procedure, shortened: as §1

RXF 393 = assay type: cell-based; conditions: Homo sapiens, RXF 393 (Renal Cancer), 1.00E-5 Molar, read-out: Growth Percent
Procedure, shortened: as §1

K-562 = assay type: cell-based; conditions: Homo sapiens, K562, K-562 (Leukemia), 1.00E-5 Molar, read-out: Growth Percent
Procedure, shortened: as §1

NCI/ADR-RES = assay type: cell-based; conditions: Homo sapiens, NCI/ADR-RES (Ovarian Cancer), 1.00E-5 Molar, read-out: Growth Percent
Procedure, shortened: as §1

MCF7 = assay type: cell-based; conditions: Homo sapiens, MCF7 (Breast Cancer), 1.00E-5 Molar, read-out: Growth Percent
Procedure, shortened: as §1

HOP-62 = assay type: cell-based; conditions: Homo sapiens, HOP-62 (Non-Small Cell Lung Cancer), 1.00E-5 Molar, read-out: Growth Percent
Procedure, shortened: as §1

NCI-H226 = assay type: cell-based; conditions: Homo sapiens, NCI-H226 (Non-Small Cell Lung Cancer), 1.00E-5 Molar, read-out: Growth Percent
Procedure, shortened: as §1

UACC-257 = assay type: cell-based; conditions: Homo sapiens, UACC-257 (Melanoma), 1.00E-5 Molar, read-out: Growth Percent
Procedure, shortened: as §1

OVCAR-5 = assay type: cell-based; conditions: Homo sapiens, OVCAR-5 (Ovarian Cancer), 1.00E-5 Molar, read-out: Growth Percent
Procedure, shortened: as §1

MDA-MB-435 = assay type: cell-based; conditions: Homo sapiens, MDA-MB-435 (Melanoma), 1.00E-5 Molar, read-out: Growth Percent
Procedure, shortened: as §1

HL-60(TB) = assay type: cell-based; conditions: Homo sapiens, HL-60(TB) (Leukemia), 1.00E-5 Molar, read-out: Growth Percent
Procedure, shortened: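 NCI-60 one-dose protocol: compound at 10^−5 M; growth and viability quantified with SRB dye.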

786-0 = assay type: cell-based; conditions: Homo sapiens, 786-0 (Renal Cancer), 1.00E-5 Molar, read-out: Growth Percent
Procedure, shortened: as §1

NCI-H23 = assay type: cell-based; conditions: Homo sapiens, NCI-H23 (Non-Small Cell Lung Cancer), 1.00E-5 Molar, read-out: Growth Percent
Procedure, shortened: as §1

CAKI-1 = assay type: cell-based; conditions: Homo sapiens, CAKI-1 (Renal Cancer), 1.00E-5 Molar, read-out: Growth Percent
Procedure, shortened: as §1

SR = assay type: cell-based, human; conditions: SR (Leukemia), 1.00E-5 Molar
Protocol: First, all diamide-based benzenesulfonamides herein reported 5a–h were screened for their antitumor activity at one dose (10^−5 M) assay against a panel of sixty cancer cell lines through the National Cancer Institute (NCI) Developmental Therapeutic Program (www.dtp.nci.nih.gov), according to US-NCI protocol. The cell growth and cell viability were evaluated using the sulforhodamine B (SRB) colorimetric assay.
This assay was carried out according to the protocol of the Drug Evaluation Branch, NCI, Bethesda. The cell growth and cell viability were evaluated using the sulforhodamine B (SRB) colorimetric assay, as reported earlier.

Row | Compound | activity at 10 µM (SF-268) | activity at 10 µM (SNB-75) | activity at 10 µM (IGROV1) | activity at 10 µM (NCI-H322M) | activity at 10 µM (COLO 205) | activity at 10 µM (NCI-H522) | activity at 10 µM (OVCAR-8) | activity at 10 µM (EKVX) | activity at 10 µM (OVCAR-4) | activity at 10 µM (HOP-92) | activity at 10 µM (DU-145) | activity at 10 µM (SF-539) | activity at 10 µM (HCT-15) | activity at 10 µM (SN12C) | activity at 10 µM (SK-MEL-5) | activity at 10 µM (SK-OV-3) | activity at 10 µM (A498) | activity at 10 µM (RXF 393) | activity at 10 µM (K-562) | activity at 10 µM (NCI/ADR-RES) | also measured
1 | COc1ccc(C=C(NC(=O)c2ccccc2)C(=O)Nc2ccc(S(N)(=O)=O)cc2)cc1 [Compound 5e, N-(1-(4-Methoxyphenyl)-3-oxo-3-((4-sulfamoylphenyl)amino)prop-1-en-2-yl)benzamide] | 113% | 95.5% | 94.5% | 110% | 110% | 90.5% | 99.4% | 105% | 111% | 109% | 113% | 96.8% | 104% | 97.1% | 100% | 97.1% | 102% | 110% | 101% | 106% | activity at 10 µM (MCF7): 98.5%; activity at 10 µM (HOP-62): 104%; activity at 10 µM (NCI-H226): 105%; activity at 10 µM (UACC-257): 102%; activity at 10 µM (OVCAR-5): 108%; activity at 10 µM (MDA-MB-435): 97.5%; activity at 10 µM (HL-60(TB)): 99.2%; activity at 10 µM (786-0): 105%; activity at 10 µM (NCI-H23): 99.6%; activity at 10 µM (CAKI-1): 98.1%; Growth Percent (SR): 88.45%
2 | COc1ccc(C=C(NC(=O)c2ccccc2)C(=O)Nc2ccc(S(N)(=O)=O)cc2)c(OC)c1 [Compound 5f, N-(1-(2,4-Dimethoxyphenyl)-3-oxo-3-((4-sulfamoylphenyl)amino)prop-1-en-2-yl)benzamide] | 114% | 92.9% | 91.9% | 102% | 118% | 88.2% | 100% | 97.3% | 104% | 114% | 111% | 98.2% | 99.1% | 94.8% | 102% | 101% | 111% | 108% | 116% | 109% | activity at 10 µM (MCF7): 87.6%; activity at 10 µM (HOP-62): 117%; activity at 10 µM (NCI-H226): 98.4%; activity at 10 µM (UACC-257): 99.6%; activity at 10 µM (OVCAR-5): 106%; activity at 10 µM (MDA-MB-435): 97%; activity at 10 µM (HL-60(TB)): 103%; activity at 10 µM (786-0): 103%; activity at 10 µM (NCI-H23): 101%; activity at 10 µM (CAKI-1): 92.3%; Growth Percent (SR): 95.41%
3 | COc1ccc(C=C(NC(=O)c2ccccc2)C(=O)Nc2ccc(S(N)(=O)=O)cc2)cc1OC [Compound 5g, N-(1-(3,4-Dimethoxyphenyl)-3-oxo-3-((4-sulfamoylphenyl)amino)prop-1-en-2-yl)benzamide] | 104% | 103% | 91.6% | 110% | 110% | 89.1% | 97.1% | 103% | 105% | 126% | 117% | 92.6% | 101% | 97.6% | 99.3% | 97.1% | 109% | 118% | 108% | 104% | activity at 10 µM (MCF7): 106%; activity at 10 µM (HOP-62): 102%; activity at 10 µM (NCI-H226): 93.3%; activity at 10 µM (UACC-257): 101%; activity at 10 µM (OVCAR-5): 103%; activity at 10 µM (MDA-MB-435): 107%; activity at 10 µM (HL-60(TB)): 101%; activity at 10 µM (786-0): 109%; activity at 10 µM (NCI-H23): 102%; activity at 10 µM (CAKI-1): 104%; Growth Percent (SR): 82.62%
